Test results from article PMC3417054 (Cell host & microbe, 2010).
Entries after “also recorded” stand apart in the source; their conditions may differ.

Assays:
[1] = system: mouse FPR paralog (Fpr-rs2); details: ref Karlsson et al., 2006; Onnheim et al., 2008; cited from earlier work
human FPR2/ALX = details: ref Karlsson et al., 2006; Onnheim et al., 2008; cited from earlier work
[2] = system: peritoneal granulocyte infiltration, S. aureus USA300; assay: Mouse peritonitis model, S. aureus USA300; type: in vivo; details: WRW4 prior to infection, two-hours infection period
mouse neutrophils = assay: Ca2+ flux in mouse neutrophils; type: cell-based; details: calcium flux
[3] = molecular target: T1, FPR2/ALX-transfected HL60 (Homo sapiens, UniProt P25090); assay: Ca2+ flux in FPR2/ALX-transfected HL60 cells; type: cell-based
T1 sequence (P25090 1-351): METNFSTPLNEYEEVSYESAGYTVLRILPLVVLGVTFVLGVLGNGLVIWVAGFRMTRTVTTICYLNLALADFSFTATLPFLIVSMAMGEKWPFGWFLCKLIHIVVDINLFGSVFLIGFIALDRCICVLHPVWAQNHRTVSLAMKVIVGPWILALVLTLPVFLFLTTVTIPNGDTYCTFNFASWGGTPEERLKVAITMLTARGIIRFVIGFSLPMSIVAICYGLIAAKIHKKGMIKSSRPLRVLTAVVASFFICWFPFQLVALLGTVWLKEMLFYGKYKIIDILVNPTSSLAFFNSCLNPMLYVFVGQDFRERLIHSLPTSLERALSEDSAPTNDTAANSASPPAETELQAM

human neutrophils [4] = molecular target: T2, human neutrophils (Homo sapiens, UniProt P25090); assay: Ca2+ flux in human neutrophils; type: cell-based; details: 37°C; for pEC50, calcium ion flux: human neutrophils, Fluo-3-AM, flow cytometry, means +/- SD of at least three independent experiments, nonlinear regression, 11-18 points
T2 sequence (P25090 1-351): T1 sequence (P25090 1-351)

human neutrophils [5] = molecular target: T2, human neutrophils; assay: Neutrophil chemotaxis; type: cell-based; details: 3-µm trans-well filter, fluorescence-labeled neutrophils
FPR1-transfected HL60 = assay: Ca2+ flux in FPR1-transfected HL60 cells; type: cell-based, human; details: 62.5-500 nM formylated PSMs, 2 µM non-formylated PSMs; fMLF 20 nM
[6] = system: mice, cows, pigs, dogs, and cats; details: ref Styrt, 1989; cited from earlier work

Compound: WRWWWW-NH2 [WRW4]
- inhibition of mouse FPR paralog Fpr-rs2 [1]: inhibitor
- inhibition of human FPR2/ALX (human FPR2/ALX): an inhibitor of human FPR2/ALX
- effect on numbers of live bacteria [2]: no impact
- effect of WRW4 on mouse neutrophil stimulation by fMLF (mouse neutrophils; fMLF 500 nM): not affected
- effect of WRW4 on mouse neutrophil stimulation by MMK1 and PSMs (mouse neutrophils; formylated PSMα3 250 nM, PSMα2 12.5 nM, δ-toxin 50 nM, MMK1 500 nM): potent antagonistic effect; also recorded: blocks

Compound: CC[C@H](C)[C@H](NC(=O)[C@H](Cc1c[nH]c2ccccc12)NC(=O)[C@H](CCCCN)NC(=O)[C@@H](NC(=O)[C@H](CC(C)C)NC(=O)[C@H](CC(=O)O)NC(=O)[C@H](CO)NC(=O)[C@@H](NC(=O)[C@@H](NC(=O)[C@H](CO)NC(=O)[C@@H](NC(=O)[C@@H](NC(=O)[C@H](CC(=O)O)NC(=O)[C@H](CCC(N)=O)NC(=O)[C@H](C)NC(=O)[C@@H](N)CCSC)[C@@H](C)CC)[C@@H](C)CC)[C@@H](C)O)[C@@H](C)CC)C(C)C)C(=O)N[C@H](C(=O)N[C@@H](CC(=O)O)C(=O)N[C@H](C(=O)N[C@H](C(=O)N[C@@H](CC(N)=O)C(=O)N[C@@H](CCCCN)C(=O)N[C@@H](Cc1ccccc1)C(=O)N[C@H](C(=O)N[C@@H](CCCCN)C(=O)N[C@@H](CCCCN)C(=O)O)[C@@H](C)O)C(C)C)[C@@H](C)O)[C@@H](C)CC [δ-Toxin, non-formylated]
- EC50 [3]: 479 nM
- pEC50, calcium ion flux (human neutrophils [4]): 5.20 ± 0.14

Compound: MDFTGVITSIIDLIKTCIQAFG [PSM-mec, formylated]
- chemotaxis of human neutrophils (human neutrophils [5]): induce chemotaxis

Compound: LESIFRSLLFRVM-NH2 [MMK1]
- calcium flux activation of FPR2/ALX-transfected HL60 ([3]; 62.5 nM (formylated PSMα3), 125 nM (formylated PSMα2), 250 nM (formylated δ-toxin, PSM-mec), 500 nM (formylated PSMsα1, α4, β1, β2), 2 µM (non-formylated PSMs), MMK1 10 nM): responded

Compound: pertussis toxin
- effect of pertussis toxin on PSM-induced calcium flux (human neutrophils [4]; PTX 1 µg/ml, three hours, 5% CO2): sensitive; also recorded: blocked

Compound: fMLF
- calcium flux activation of FPR1-transfected HL60 (FPR1-transfected HL60): responded
- response to fMLF [6]: hardly respond

Compound: CSCC[C@H](N)C(=O)N[C@@H](CCC(=O)O)C(=O)N[C@@H](Cc1ccccc1)C(=O)N[C@H](C(=O)N[C@@H](C)C(=O)N[C@@H](CCCCN)C(=O)N[C@@H](CC(C)C)C(=O)N[C@@H](Cc1ccccc1)C(=O)N[C@@H](CCCCN)C(=O)N[C@@H](Cc1ccccc1)C(=O)N[C@@H](Cc1ccccc1)C(=O)N[C@@H](CCCCN)C(=O)N[C@@H](CC(=O)O)C(=O)N[C@@H](CC(C)C)C(=O)N[C@@H](CC(C)C)C(=O)NCC(=O)N[C@@H](CCCCN)C(=O)N[C@@H](Cc1ccccc1)C(=O)N[C@@H](CC(C)C)C(=O)NCC(=O)N[C@@H](CC(N)=O)C(=O)N[C@@H](CC(N)=O)C(=O)O)C(C)C [PSMα3, non-formylated]
- EC50 [3]: 257 nM
- pEC50, calcium ion flux (human neutrophils [4]): 5.19 ± 0.24
